{
  "source": "paper PMC10261145",
  "about": "“Ceramide sensing by human SPT-ORMDL complex for establishing sphingolipid homeostasis” (Nature Communications, 2023)",
  "molecules": {"B1": {"name": "SPTssa (natural protein, human, UniProt Q969W0 1-71, looked up)", "chain": "MAGMALARAWKQMSWFYYQYLLVTALYMLEPWERTVFNSMLVSIVGMALYTGYVFMPQHIMAILHYFEIVQ", "notes": "serine palmitoyltransferase small subunit A (SPTssa), human, codon-optimized full-length cDNA; also called small SPT subunit; source: HEK293F, transiently co-transfected with the other subunits, purified as a complex (anti-Flag resin, SEC, GDN)"}},
  "key": {"[1]": {"target": "T1, SPT-ORMDL3 complex (Homo sapiens, UniProt O15269+O15270+Q8N138)", "T1 construct": "full-length subunits (ORMDL3-FL) co-expressed in HEK293F; N-terminal Flag tag on a subunit; purified in GDN; dimer of heterotetrameric protomers; with Serine palmitoyltransferase small subunit A", "assay": "cryo-EM structure; LC-MS/MS of co-purified ceramides", "assay_type": "binding", "conditions": "endogenous co-purified lipid; C24-ceramide fitted to a ceramide-like density, chain length not uniquely defined"}, "[2]": {"target": "T2, SPT-ORMDL3 complex (Homo sapiens, UniProt O15269+O15270+Q8N138, Q8N138:N13A)", "T2 construct": "full-length subunits (ORMDL3-FL) co-expressed in HEK293F; N-terminal Flag tag on a subunit; purified in GDN; dimer of heterotetrameric protomers; with Serine palmitoyltransferase small subunit A", "T2 sequence (Q8N138 whole entry N13A, one chain of several)": "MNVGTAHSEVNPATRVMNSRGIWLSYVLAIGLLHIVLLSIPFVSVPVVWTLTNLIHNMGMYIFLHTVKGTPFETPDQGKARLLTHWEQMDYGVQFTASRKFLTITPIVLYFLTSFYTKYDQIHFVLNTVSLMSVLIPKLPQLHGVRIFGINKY", "T2 sequence (O15270 whole entry, one chain of several)": "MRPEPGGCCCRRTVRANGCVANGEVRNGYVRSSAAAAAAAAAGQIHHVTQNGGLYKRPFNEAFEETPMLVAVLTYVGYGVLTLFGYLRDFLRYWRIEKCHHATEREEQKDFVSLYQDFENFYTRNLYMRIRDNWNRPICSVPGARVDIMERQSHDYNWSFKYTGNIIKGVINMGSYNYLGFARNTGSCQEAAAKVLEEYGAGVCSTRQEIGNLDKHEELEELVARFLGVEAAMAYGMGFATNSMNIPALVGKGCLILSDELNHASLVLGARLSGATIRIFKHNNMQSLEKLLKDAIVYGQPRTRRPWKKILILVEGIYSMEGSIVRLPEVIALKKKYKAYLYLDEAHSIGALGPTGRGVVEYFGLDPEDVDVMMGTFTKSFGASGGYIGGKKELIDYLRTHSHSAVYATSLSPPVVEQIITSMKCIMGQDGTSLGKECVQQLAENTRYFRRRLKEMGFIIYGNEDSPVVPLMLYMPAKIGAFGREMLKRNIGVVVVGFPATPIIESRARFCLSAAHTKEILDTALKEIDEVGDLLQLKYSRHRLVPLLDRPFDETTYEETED", "T2 sequence (O15269 whole entry, one chain of several)": "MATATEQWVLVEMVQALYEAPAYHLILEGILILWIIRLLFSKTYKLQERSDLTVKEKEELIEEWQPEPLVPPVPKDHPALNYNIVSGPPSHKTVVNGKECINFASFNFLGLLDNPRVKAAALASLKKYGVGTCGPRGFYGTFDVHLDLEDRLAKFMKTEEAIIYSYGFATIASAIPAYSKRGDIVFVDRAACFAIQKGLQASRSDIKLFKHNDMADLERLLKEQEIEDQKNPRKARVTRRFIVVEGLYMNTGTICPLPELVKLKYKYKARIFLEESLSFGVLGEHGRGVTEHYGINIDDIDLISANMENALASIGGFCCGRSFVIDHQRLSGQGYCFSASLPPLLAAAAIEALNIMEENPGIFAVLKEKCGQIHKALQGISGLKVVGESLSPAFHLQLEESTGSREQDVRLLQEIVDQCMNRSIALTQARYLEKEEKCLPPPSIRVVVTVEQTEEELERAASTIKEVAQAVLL", "assay": "DTNB CoA-release assay", "assay_type": "biochemical", "conditions": "10 mM L-serine, 100 μM palmitoyl-CoA, 25 μM PLP, pH 7.5, 37 °C"}, "[3]": {"target": "T3, SPT-ORMDL2 complex (Homo sapiens, UniProt O15269+O15270+Q53FV1)", "T3 construct": "full-length subunits co-expressed in HEK293F; N-terminal Flag tag on a subunit; purified in GDN; with Serine palmitoyltransferase small subunit A", "assay": "DTNB CoA-release assay", "assay_type": "biochemical"}, "[4]": {"target": "T4, SPT-ORMDL3 complex (Homo sapiens, UniProt O15269+O15270+Q8N138, O15269:DEL40-41)", "T4 construct": "full-length subunits (ORMDL3-FL) co-expressed in HEK293F; N-terminal Flag tag on a subunit; purified in GDN; dimer of heterotetrameric protomers; with Serine palmitoyltransferase small subunit A", "T4 sequence (O15270 whole entry, stated change not applied, one chain of several)": "as the sequence (O15270 whole entry, one chain of several) above", "T4 sequence (O15269 with tags, fused parts or gaps DEL40-41, one chain of several)": "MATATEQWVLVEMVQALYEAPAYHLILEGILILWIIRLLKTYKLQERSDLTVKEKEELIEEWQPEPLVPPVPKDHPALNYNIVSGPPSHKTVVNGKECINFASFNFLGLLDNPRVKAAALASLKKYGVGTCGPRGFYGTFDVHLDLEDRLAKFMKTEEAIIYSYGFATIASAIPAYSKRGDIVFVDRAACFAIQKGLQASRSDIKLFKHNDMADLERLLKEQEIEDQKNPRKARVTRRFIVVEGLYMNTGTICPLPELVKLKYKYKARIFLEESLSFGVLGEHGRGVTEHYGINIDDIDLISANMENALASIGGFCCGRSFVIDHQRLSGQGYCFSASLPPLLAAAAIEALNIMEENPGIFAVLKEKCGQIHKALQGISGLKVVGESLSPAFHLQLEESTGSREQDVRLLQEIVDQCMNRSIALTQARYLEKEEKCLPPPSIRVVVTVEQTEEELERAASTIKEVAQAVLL", "assay": "DTNB CoA-release assay", "assay_type": "biochemical", "conditions": "10 mM L-serine, 100 μM palmitoyl-CoA, 25 μM PLP, pH 7.5, 37 °C"}, "[5]": {"target": "T5, SPT-ORMDL3 complex (Homo sapiens, UniProt O15269+O15270+Q8N138, O15270:Y122A)", "T5 construct": "full-length subunits (ORMDL3-FL) co-expressed in HEK293F; N-terminal Flag tag on a subunit; purified in GDN; dimer of heterotetrameric protomers; with Serine palmitoyltransferase small subunit A", "T5 sequence (O15270 whole entry Y122A, one chain of several)": "as the sequence (O15270 whole entry, one chain of several) above, with Y122A counted along it", "T5 sequence (O15269 whole entry, one chain of several)": "as the sequence (O15269 whole entry, one chain of several) above", "assay": "DTNB CoA-release assay", "assay_type": "biochemical", "description": "(§1) DTNB CoA-release assay on SPT-ORMDL3 complex | severely impaired for the former two variants, but largely sustained for the latter two variants"}, "[6]": {"target": "T6, SPT-ORMDL3 complex (Homo sapiens, UniProt O15269+O15270+Q8N138, Q8N138:H85A)", "T6 construct": "full-length subunits (ORMDL3-FL) co-expressed in HEK293F; N-terminal Flag tag on a subunit; purified in GDN; dimer of heterotetrameric protomers; with Serine palmitoyltransferase small subunit A", "T6 sequence (Q8N138 whole entry H85A, one chain of several)": "as the sequence (Q8N138 whole entry N13A, one chain of several) above, with A13N, H85A counted along it", "T6 sequence (O15270 whole entry, one chain of several)": "as the sequence (O15270 whole entry, one chain of several) above", "T6 sequence (O15269 whole entry, one chain of several)": "as the sequence (O15269 whole entry, one chain of several) above", "assay": "DTNB CoA-release assay", "assay_type": "biochemical", "description": "as §1"}, "[7]": {"target": "T7, SPT-ORMDL1 complex (Homo sapiens, UniProt O15269+O15270+Q9P0S3)", "T7 construct": "full-length subunits co-expressed in HEK293F; N-terminal Flag tag on a subunit; purified in GDN; with Serine palmitoyltransferase small subunit A", "assay": "DTNB CoA-release assay", "assay_type": "biochemical"}, "[8]": {"target": "T1, SPT-ORMDL3 complex", "assay": "DTNB CoA-release assay; cryo-EM structure", "assay_type": "biochemical"}, "[9]": {"target": "T8, SPT-ORMDL3 complex (Homo sapiens, UniProt O15269+O15270+Q8N138, Q8N138:F63P)", "T8 construct": "full-length subunits (ORMDL3-FL) co-expressed in HEK293F; N-terminal Flag tag on a subunit; purified in GDN; dimer of heterotetrameric protomers; with Serine palmitoyltransferase small subunit A", "T8 sequence (Q8N138 whole entry F63P, one chain of several)": "as the sequence (Q8N138 whole entry N13A, one chain of several) above, with A13N, F63P counted along it", "T8 sequence (O15270 whole entry, one chain of several)": "as the sequence (O15270 whole entry, one chain of several) above", "T8 sequence (O15269 whole entry, one chain of several)": "as the sequence (O15269 whole entry, one chain of several) above", "assay": "DTNB CoA-release assay", "assay_type": "biochemical", "conditions": "10 mM L-serine, 100 μM palmitoyl-CoA, 25 μM PLP, pH 7.5, 37 °C"}, "[10]": {"target": "T9, SPT-ORMDL3 complex (Homo sapiens, UniProt O15269+O15270+Q8N138, O15269:DEL39-39)", "T9 construct": "full-length subunits (ORMDL3-FL) co-expressed in HEK293F; N-terminal Flag tag on a subunit; purified in GDN; dimer of heterotetrameric protomers; with Serine palmitoyltransferase small subunit A", "T9 sequence (O15270 whole entry, stated change not applied, one chain of several)": "as the sequence (O15270 whole entry, one chain of several) above", "T9 sequence (O15269 with tags, fused parts or gaps DEL39-39, one chain of several)": "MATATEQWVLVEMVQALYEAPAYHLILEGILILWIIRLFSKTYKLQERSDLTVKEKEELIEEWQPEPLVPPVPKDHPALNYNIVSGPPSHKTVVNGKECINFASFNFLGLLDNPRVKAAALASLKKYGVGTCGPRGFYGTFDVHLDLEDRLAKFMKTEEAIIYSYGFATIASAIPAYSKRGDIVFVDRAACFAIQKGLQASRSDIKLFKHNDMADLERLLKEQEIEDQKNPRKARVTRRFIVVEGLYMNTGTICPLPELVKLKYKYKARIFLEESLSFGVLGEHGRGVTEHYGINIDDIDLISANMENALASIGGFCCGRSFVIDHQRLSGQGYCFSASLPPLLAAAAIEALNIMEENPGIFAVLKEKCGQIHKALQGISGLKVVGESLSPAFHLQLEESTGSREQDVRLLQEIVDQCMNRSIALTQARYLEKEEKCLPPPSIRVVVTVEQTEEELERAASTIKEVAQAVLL", "assay": "DTNB CoA-release assay", "assay_type": "biochemical", "conditions": "10 mM L-serine, 100 μM palmitoyl-CoA, 25 μM PLP, pH 7.5, 37 °C"}, "[11]": {"target": "T10, ORMDL3 (full-length, wild type) (human, UniProt Q8N138 1-153)", "T10 construct": "ORMDL3, human, codon-optimized full-length cDNA in pCAG (new ORMDL3-FL plasmid without the 14 extra nucleotides upstream of the ORF); cDNAs were cloned 'with an N-terminal Flag tag or without a tag'; also called ORMDL3-FL; WT ORMDL3; source: HEK293F, transiently co-transfected with the SPT subunits, purified as a complex (anti-Flag resin, SEC, GDN)", "T10 sequence (looked up)": "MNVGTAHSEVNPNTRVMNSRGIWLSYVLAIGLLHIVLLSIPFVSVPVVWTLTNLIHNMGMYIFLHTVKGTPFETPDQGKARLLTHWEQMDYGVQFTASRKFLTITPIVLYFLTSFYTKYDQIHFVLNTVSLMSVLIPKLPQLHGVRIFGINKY", "assay": "cryo-EM structure; single-particle cryo-EM of co-expressed and co-purified SPT-ORMDL3 complexes at ~18 mg/ml in 25 mM HEPES pH 7.5, 150 mM NaCl, 0.01% GDN; apo, or WT preincubated with 1 mM C6-ceramide on ice for 1 hr", "conditions": "both partners purified"}},
  "data": [
    {"molecule": "CCCCCCCCCCCCC/C=C/[C@@H](O)[C@H](CO)NC(=O)CCCCCCCCCCCCCCCCCCCCCCC", "note": "[C24-ceramide]", "values": [
      {"measurement": "cryo-EM structure; LC-MS/MS of co-purified ceramides", "setting": "[1]", "value": "ceramide-like density in the apo SPT-ORMDL3 structure, which could be better fitted with C24-ceramide"}
    ]},
    {"molecule": "CCCCCCCCCCCCC/C=C/[C@@H](O)[C@H](CO)NC(=O)CCCCC", "note": "[C6-ceramide]", "values": [
      {"measurement": "inhibition curve", "setting": "[2]", "value": "responses to C6-ceramide have been severely impaired for the former two variants"},
      {"measurement": "IC50", "setting": "[3]", "value": 980, "unit": "nM"},
      {"measurement": "inhibition curve", "setting": "[4]", "value": "inhibition effect of C6-ceramide on all these SPTLC1 ALS variants was attenuated"},
      {"measurement": "IC50", "setting": "[5]", "value": 6980, "unit": "nM"},
      {"measurement": "IC50", "setting": "[6]", "value": 964, "unit": "nM"},
      {"measurement": "IC50", "setting": "[7]", "value": 4070, "unit": "nM"},
      {"measurement": "IC50", "setting": "[8]", "value": 2200, "unit": "nM"},
      {"measurement": "inhibition curve", "setting": "[9]", "value": "responses to C6-ceramide have been severely impaired for the former two variants"},
      {"measurement": "inhibition curve", "setting": "[10]", "value": "inhibition effect of C6-ceramide on all these SPTLC1 ALS variants was attenuated"}
    ]},
    {"molecule": "B1", "values": [
      {"measurement": "binding result", "setting": "[11]", "value": "binds"}
    ]}
  ]
}
